Experimental data reported in PMC10932284 (International Journal of Molecular Sciences, 2024).

Biological target: T1, MtCA1 (Mycobacterium tuberculosis, UniProt P9WPJ7)
T1 construct: made in house
Assay: biochemical
Details: ratio of Ki values

T1 sequence (P9WPJ7 whole entry): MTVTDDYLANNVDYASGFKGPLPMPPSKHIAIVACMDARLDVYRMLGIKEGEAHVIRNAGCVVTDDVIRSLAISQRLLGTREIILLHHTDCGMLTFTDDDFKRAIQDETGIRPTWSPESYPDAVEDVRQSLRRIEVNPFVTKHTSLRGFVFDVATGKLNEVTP

Structure (SMILES) | Selectivity Index (SI) hCA II/MtCA1
O=C1Nc2c(F)cccc2S(=O)(=O)N1 [2g] | 0.1
O=C1Nc2c(Cl)cccc2S(=O)(=O)N1 [2i] | 0.5
O=C1Nc2ccc(Cl)cc2S(=O)(=O)N1 [2j] | 0.5
O=C1Nc2c(Br)cccc2S(=O)(=O)N1 [2k] | 0.5
O=C1Nc2ccc(Br)cc2S(=O)(=O)N1 [2l] | 0.8
COc1ccc2c(c1)S(=O)(=O)NC(=O)N2 [2m] | 0.7
O=C1Nc2c(ccc3ccccc23)S(=O)(=O)N1 [2n] | 0.5
CN1C(=O)NS(=O)(=O)c2ccccc21 [2o] | 1.5
CN1C(=O)NS(=O)(=O)c2cc(Cl)ccc21 [2p] | 2.0
O=C1NS(=O)(=O)c2cccc3c2N1CC3 [2q] | 1.2
O=C1Nc2c(C(=O)O)cccc2S(=O)(=O)N1 [2r] | 0.7

Same assay, conditions: stopped-flow CO2 hydrase assay, mean from three assays; read-out: Ki MtCA1

Structure (SMILES) | Ki
O=C1Nc2c(F)cccc2S(=O)(=O)N1 [2g] | 1290 ± 96 nM
O=C1Nc2c(Cl)cccc2S(=O)(=O)N1 [2i] | 1500 ± 89 nM
O=C1Nc2ccc(Cl)cc2S(=O)(=O)N1 [2j] | 2460 ± 174 nM
O=C1Nc2c(Br)cccc2S(=O)(=O)N1 [2k] | 993 ± 33 nM
O=C1Nc2ccc(Br)cc2S(=O)(=O)N1 [2l] | 2960 ± 213 nM
COc1ccc2c(c1)S(=O)(=O)NC(=O)N2 [2m] | 2760 ± 166 nM
O=C1Nc2c(ccc3ccccc23)S(=O)(=O)N1 [2n] | 1040 ± 41 nM
CN1C(=O)NS(=O)(=O)c2ccccc21 [2o] | 556 ± 37 nM
CN1C(=O)NS(=O)(=O)c2cc(Cl)ccc21 [2p] | 1180 ± 75 nM
O=C1NS(=O)(=O)c2cccc3c2N1CC3 [2q] | 883 ± 24 nM
O=C1Nc2c(C(=O)O)cccc2S(=O)(=O)N1 [2r] | 3280 ± 204 nM

Biological target: hCA I
Assay: not given
Set-up: method as in PMID 31794211
Details: stopped-flow CO2 hydrase assay; cited from earlier work

Structure (SMILES) | Ki
O=C1Nc2c(F)cccc2S(=O)(=O)N1 [2g] | 547 nM
O=C1Nc2c(Cl)cccc2S(=O)(=O)N1 [2i] | 930 nM
O=C1Nc2ccc(Cl)cc2S(=O)(=O)N1 [2j] | 1860 nM
O=C1Nc2c(Br)cccc2S(=O)(=O)N1 [2k] | 2320 nM
O=C1Nc2ccc(Br)cc2S(=O)(=O)N1 [2l] | 4400 nM
COc1ccc2c(c1)S(=O)(=O)NC(=O)N2 [2m] | 3810 nM
O=C1Nc2c(ccc3ccccc23)S(=O)(=O)N1 [2n] | 2070 nM
CN1C(=O)NS(=O)(=O)c2ccccc21 [2o] | 3410 nM
CN1C(=O)NS(=O)(=O)c2cc(Cl)ccc21 [2p] | > 10000 nM
O=C1NS(=O)(=O)c2cccc3c2N1CC3 [2q] | 6860 nM
O=C1Nc2c(C(=O)O)cccc2S(=O)(=O)N1 [2r] | 5780 nM

Biological target: T2, MtCA2 (Mycobacterium tuberculosis, UniProt P9WPJ9)
T2 construct: made in house
Assay: stopped-flow CO2 hydrase assay, MtCA2
Type: biochemical
Details: not given
Protocol: BTDs 2a-2t were submitted to a stopped-flow CO2 hydrase kinetic assay to evaluate the inhibitory profile against the mycobacterial β-CAs MtCA1, MtCA2, MtCA3 (Table 1), in comparison to the inhibitory effect on hCA I and II, which were selected due to their abundance in the human organism and thus off-target in this study.
A stopped-flow instrument from Applied Photophysics was utilized to assess the inhibition of CA-catalyzed CO2 hydration activity. […] The assay employed 20 mM HEPES (pH 8.3) as a buffer and 20 mM Na2SO4 to maintain constant ionic strength. The investigation focused on the initial rates of the CA-catalyzed CO2 hydration reaction over a duration of 10–100 s. CO2 concentrations ranging from 1.7 to 17 mM were employed to determine kinetic parameters and inhibition constants. For each inhibitor, a minimum of six traces of the initial 5–10% of the reaction were utilized to determine the initial velocity. Uncatalyzed rates were determined in a similar manner and subtracted from the overall observed rates. Inhibitor stock solutions (0.1 mM) were initially prepared in distilled–deionized water, followed by subsequent dilutions up to 0.01 nM with the assay buffer. To allow for the formation of the E-I complex, inhibitor and enzyme solutions were preincubated together for 15 min at room temperature before the assay. The inhibition constants were derived through nonlinear least-squares methods using PRISM and the Cheng–Prusoff equation, as previously reported, representing the mean from at least three different determinations.

T2 sequence (P9WPJ9 whole entry, looked up): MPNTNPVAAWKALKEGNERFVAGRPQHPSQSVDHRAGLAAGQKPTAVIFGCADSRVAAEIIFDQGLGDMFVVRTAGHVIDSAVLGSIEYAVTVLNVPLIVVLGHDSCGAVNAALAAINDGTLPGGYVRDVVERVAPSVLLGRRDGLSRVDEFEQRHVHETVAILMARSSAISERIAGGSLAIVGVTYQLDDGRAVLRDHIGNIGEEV

Structure (SMILES) | Ki
O=C1Nc2c(F)cccc2S(=O)(=O)N1 [2g] | 62.9 ± 2.5 nM
O=C1Nc2c(Cl)cccc2S(=O)(=O)N1 [2i] | 214 ± 13 nM
O=C1Nc2ccc(Cl)cc2S(=O)(=O)N1 [2j] | 67.1 ± 4.3 nM
O=C1Nc2c(Br)cccc2S(=O)(=O)N1 [2k] | 458 ± 25 nM
O=C1Nc2ccc(Br)cc2S(=O)(=O)N1 [2l] | 200 ± 14 nM
COc1ccc2c(c1)S(=O)(=O)NC(=O)N2 [2m] | 152 ± 11 nM
O=C1Nc2c(ccc3ccccc23)S(=O)(=O)N1 [2n] | 995 ± 35 nM
CN1C(=O)NS(=O)(=O)c2ccccc21 [2o] | 39.6 ± 2.1 nM
CN1C(=O)NS(=O)(=O)c2cc(Cl)ccc21 [2p] | 135 ± 9 nM
O=C1NS(=O)(=O)c2cccc3c2N1CC3 [2q] | 599 ± 31 nM
O=C1Nc2c(C(=O)O)cccc2S(=O)(=O)N1 [2r] | 105 ± 6 nM

Same assay, conditions: ratio of Ki values

Structure (SMILES) | Selectivity Index (SI) hCA II/MtCA2
O=C1Nc2c(F)cccc2S(=O)(=O)N1 [2g] | 2.2
O=C1Nc2c(Cl)cccc2S(=O)(=O)N1 [2i] | 3.2
O=C1Nc2ccc(Cl)cc2S(=O)(=O)N1 [2j] | 17.0
O=C1Nc2c(Br)cccc2S(=O)(=O)N1 [2k] | 1.1
O=C1Nc2ccc(Br)cc2S(=O)(=O)N1 [2l] | 11.8
COc1ccc2c(c1)S(=O)(=O)NC(=O)N2 [2m] | 12.6
O=C1Nc2c(ccc3ccccc23)S(=O)(=O)N1 [2n] | 0.5
CN1C(=O)NS(=O)(=O)c2ccccc21 [2o] | 21.5
CN1C(=O)NS(=O)(=O)c2cc(Cl)ccc21 [2p] | 17.3
O=C1NS(=O)(=O)c2cccc3c2N1CC3 [2q] | 1.8
O=C1Nc2c(C(=O)O)cccc2S(=O)(=O)N1 [2r] | 23.2

Biological target: hCA II
Assay: not given
Set-up: method as in PMID 31794211
Details: stopped-flow CO2 hydrase assay; cited from earlier work

Structure (SMILES) | Ki
O=C1Nc2c(F)cccc2S(=O)(=O)N1 [2g] | 140 nM
O=C1Nc2c(Cl)cccc2S(=O)(=O)N1 [2i] | 686 nM
O=C1Nc2ccc(Cl)cc2S(=O)(=O)N1 [2j] | 1140 nM
O=C1Nc2c(Br)cccc2S(=O)(=O)N1 [2k] | 527 nM
O=C1Nc2ccc(Br)cc2S(=O)(=O)N1 [2l] | 2360 nM
COc1ccc2c(c1)S(=O)(=O)NC(=O)N2 [2m] | 1920 nM
O=C1Nc2c(ccc3ccccc23)S(=O)(=O)N1 [2n] | 484 nM
CN1C(=O)NS(=O)(=O)c2ccccc21 [2o] | 853 nM
CN1C(=O)NS(=O)(=O)c2cc(Cl)ccc21 [2p] | 2340 nM
O=C1NS(=O)(=O)c2cccc3c2N1CC3 [2q] | 1060 nM
O=C1Nc2c(C(=O)O)cccc2S(=O)(=O)N1 [2r] | 2450 nM

Biological target: MtCA3 (Mycobacterium tuberculosis, UniProt P96878)
Assay: biochemical
Details: ratio of Ki values

Sequence of MtCA3 (P96878 550-764 limits assumed): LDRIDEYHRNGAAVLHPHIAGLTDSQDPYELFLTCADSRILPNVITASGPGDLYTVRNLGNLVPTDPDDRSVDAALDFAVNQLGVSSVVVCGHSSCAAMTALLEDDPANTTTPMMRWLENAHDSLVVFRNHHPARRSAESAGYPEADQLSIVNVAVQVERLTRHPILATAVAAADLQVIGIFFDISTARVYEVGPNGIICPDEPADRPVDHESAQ

Structure (SMILES) | Selectivity Index (SI) hCA II/MtCA3
O=C1Nc2c(F)cccc2S(=O)(=O)N1 [2g] | 8.6
O=C1Nc2c(Cl)cccc2S(=O)(=O)N1 [2i] | 15.5
O=C1Nc2ccc(Cl)cc2S(=O)(=O)N1 [2j] | 28.7
O=C1Nc2c(Br)cccc2S(=O)(=O)N1 [2k] | 6.4
O=C1Nc2ccc(Br)cc2S(=O)(=O)N1 [2l] | 26.2
COc1ccc2c(c1)S(=O)(=O)NC(=O)N2 [2m] | 32.5
O=C1Nc2c(ccc3ccccc23)S(=O)(=O)N1 [2n] | 4.0
CN1C(=O)NS(=O)(=O)c2ccccc21 [2o] | 26.2
CN1C(=O)NS(=O)(=O)c2cc(Cl)ccc21 [2p] | 50.8
O=C1NS(=O)(=O)c2cccc3c2N1CC3 [2q] | 13.9
O=C1Nc2c(C(=O)O)cccc2S(=O)(=O)N1 [2r] | 37.4

Same assay, conditions: stopped-flow CO2 hydrase assay, mean from three assays

Structure (SMILES) | Ki
O=C1Nc2c(F)cccc2S(=O)(=O)N1 [2g] | 16.2 ± 1.1 nM
O=C1Nc2c(Cl)cccc2S(=O)(=O)N1 [2i] | 44.3 ± 2.9 nM
O=C1Nc2ccc(Cl)cc2S(=O)(=O)N1 [2j] | 39.8 ± 2.2 nM
O=C1Nc2c(Br)cccc2S(=O)(=O)N1 [2k] | 82.4 ± 4.9 nM
O=C1Nc2ccc(Br)cc2S(=O)(=O)N1 [2l] | 90.1 ± 6.7 nM
COc1ccc2c(c1)S(=O)(=O)NC(=O)N2 [2m] | 59.2 ± 4.2 nM
O=C1Nc2c(ccc3ccccc23)S(=O)(=O)N1 [2n] | 120 ± 8 nM
CN1C(=O)NS(=O)(=O)c2ccccc21 [2o] | 32.5 ± 2.4 nM
CN1C(=O)NS(=O)(=O)c2cc(Cl)ccc21 [2p] | 46 ± 3.3 nM
O=C1NS(=O)(=O)c2cccc3c2N1CC3 [2q] | 76.2 ± 5.6 nM
O=C1Nc2c(C(=O)O)cccc2S(=O)(=O)N1 [2r] | 65.4 ± 3.9 nM
